Measured values as given in patent US10501473B2, “Fused heterocyclic ring compounds and method of treating retinal disease using same” (THE INDUSTRY & ACADEMIC COOPERATION IN CHUNGNAM NATIONAL …, priority 2014, dated 2019).
Values joined by “and” are separate entries in the source; they are usually repeats but may differ in a detail not shown here. Identical values can stand only once.

Assays:
[1] = system: dry macular degeneration pig model; experiment: Drug efficacy by fundoscopy; assay type: in vivo; conditions: IAA 10 mg/kg iv, 7 days after induction, FIG. 13
Description: First, to construct a dry macular degeneration pig model, 10 mg/kg of iodoacetic acid (IAA) was dissolved in PBS (phosphate buffered saline) and injected intravenously to a mini pig (Yutacan Micropig). One week after the IAA administration, retinal degeneration was confirmed by retinal fundus photography and fluorescence (Experimental eye research 2012. 97, 137-147), and a schematic diagram illustrating the eye drop instillation of the compounds is shown in FIG. 12.
The eye drop instillation of the compounds of the invention was performed from a day before the IAA administration as shown in FIG. 12. 7 days after the induction of retinal degeneration in the pig, retinal fundus photographs were taken and the results are shown in FIG. 13.

[2] = system: dry macular degeneration pig model; experiment: Drug efficacy by ERG (electroretinography) 2; assay type: in vivo
Description: The experiment was performed by the same manner as described in Experimental Example 10 except that a dry macular degeneration pig model was used instead of the dry macular degeneration rabbit model.

[3] = Solubility in water of doxycycline forms; assay type: physicochemical
[4] = system: retinal degeneration rabbit model; experiment: Drug efficacy by ERG (electroretinography) 1; assay type: in vivo; conditions: for response compared to normal (100%) / Drug efficacy (%): ERG; for Wave ratio / Drug efficacy (%): SI model; for Wave ratio: ERG wave A after one week, eye drops 100 μl twice a day, Comparative Example 3 oral 10 mg/rabbit once a day, Normal = 1.00
Description: The normal rabbit was anesthetized, which was adapted for 20 minutes in a dark room. Retinal potential difference was measured by ERG equipment. Electroretinography is a method to observe the response of photoreceptor cells with two light intensities. Particularly, A and B waves were measured from 100 to 10000 mcd, and the retinal potential difference measured at 3000 mcd. Drug efficacy was evaluated by observing the photoreceptor cells, for which the stronger response to wave A was selected.
Evaluation of candidate substances for dry macular degeneration was performed using a retinal degeneration rabbit model. The compounds of Comparative Examples 2 and 3 were used as comparative compounds. […] The compound of Comparative Example 3 was orally administered once a day (10 mg/rabbit, dissolved in saline).

retina of rats = conditions: retinal detachment; cited from earlier work
[5] = system: RGC-5 (rat ganglion cell); experiment: Retinal nerve protection under oxygen-glucose deprivation (OGD), LDH assay; assay type: cell-based; conditions: RGC-5, OGD 15 hours, compound 20 μM, DMSO control = 100%
How it was run: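 RGC-5 cells switched to glucose-free DMEM with compound (20 μM) or 0.1% DMSO and held 15 h at 37° C under anaerobic gas (10% H2, 5% CO2, 85% N2). Cell death from released LDH (formazan, 490 nm), scaled with OGD control as 100% and normal-medium cells as 0%; triplicate wells, experiments in triplicate.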

[6] = system: dry macular degeneration rat model; experiment: Retinal cell protection by instillation, sodium iodate rat model, H&E staining; assay type: in vivo; conditions: SI ip 50 mg/kg, eye drops 50 μl twice a day, FIG. 2
Description: From 3 days before the administration of sodium iodate (SI) to the 8-week-old dry macular degeneration rat model, the compound of the invention was instillated twice a day (50 μl/each eye drop instillation) and SI (ip, 50 mg/kg) was administered once. Additionally, the compound was instillated twice a day for 7 days. 7 days later, the eyeballs were extracted, followed by H&E staining to investigate retinal cell protection effect (n=3, 6 eyes). FIG. 1 is a schematic diagram illustrating the construction of the dry macular degeneration rat model and the eye drop instillation of the compounds of the invention.
The eyeballs were extracted from the dry macular degeneration rat model constructed by the same manner as described in FIG. 1, followed by histostaining.
To measure the survival rate (%) of retinal pigment epithelial cells, the eyeballs extracted from the experimental rats were fixed in 4% glutaraldehyde solution for 4 hours and embedded in paraffin. Tissue sections were prepared in 5 μm thickness, followed by H&E (Hematoxylin and Eosin) staining. Photomicrographs were taken of 2-3 different areas within the RPE (retinal pigment epithelium) layer on 100× optical microscope (Leica), and the number of stained cells was counted. The number of RPE cells in the normal rat group was regarded as 100%, based on which the survival rate was calculated.

[7] = target: T1, RIPK1 (receptor-interacting serine/threonine-protein kinase 1) (Homo sapiens (Human), UniProt Q13546); experiment: IC50 to RIPK1, immuno-precipitated enzyme with [32P]γ-ATP; assay type: biochemical; conditions: 10-0.05 μM, 100 μM ATP
T1 sequence (Q13546 whole entry, species assumed): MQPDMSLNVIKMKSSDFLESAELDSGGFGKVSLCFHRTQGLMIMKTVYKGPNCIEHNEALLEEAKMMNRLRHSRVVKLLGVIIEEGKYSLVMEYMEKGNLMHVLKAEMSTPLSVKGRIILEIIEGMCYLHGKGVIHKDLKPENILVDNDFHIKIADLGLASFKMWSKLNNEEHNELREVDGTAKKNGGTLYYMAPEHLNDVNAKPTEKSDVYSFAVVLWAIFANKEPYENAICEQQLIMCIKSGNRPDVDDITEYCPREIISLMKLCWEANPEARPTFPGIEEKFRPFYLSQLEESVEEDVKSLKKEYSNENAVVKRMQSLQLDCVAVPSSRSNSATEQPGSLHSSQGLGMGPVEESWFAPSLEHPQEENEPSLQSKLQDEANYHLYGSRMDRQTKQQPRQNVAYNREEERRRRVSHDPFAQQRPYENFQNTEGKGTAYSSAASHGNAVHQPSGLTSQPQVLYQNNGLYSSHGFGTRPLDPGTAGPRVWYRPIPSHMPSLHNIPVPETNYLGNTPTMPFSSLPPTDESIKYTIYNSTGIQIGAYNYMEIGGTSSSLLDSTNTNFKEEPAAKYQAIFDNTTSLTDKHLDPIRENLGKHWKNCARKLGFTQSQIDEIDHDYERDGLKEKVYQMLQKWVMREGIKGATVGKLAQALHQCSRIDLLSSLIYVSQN
Description: RIPK1 enzyme immuno-precipitated in HEK293 (Human Embryonic Kidney 293) cell lysate was used as a kinase. The experiment was performed according to the method described in Cell. 12; 137(6):1112-23(2009).
RIPK1 protein was over-expressed in HEK293 cell line, to which lysis buffer (50 mM Tris-Cl [pH 8.0], 150 mM NaCl, 1 mM EDTA, 1% NP-40, 0.4 mM phenylmethylsulfonyl fluoride (PMSF)) was added for cell lysis. Centrifugation was performed at 13,000 rpm for 10 minutes to separate the supernatant. RIPK1 monoclonal antibody (610459, BD Bioscience) and A/G agarose beads (sc-2003, Santa Cruz Biotechnology) were added thereto, followed by immuno-precipitation in a 4° C. rotator for 12 hours.
The compounds of examples of the invention were diluted at the different concentrations of 10 μM˜0.05 μM (10, 5, 1, 0.5, 0.1, 0.05 uM) and mixed with the immuno-precipitated RIPK1 enzyme, followed by reaction in a 24° C. constant-temperature water bath for 15 minutes. Additional reaction was induced for 30 minutes at 30° C. after 100 μM of ATP and 10 μCi[^32P] γ-ATP were added thereto. The reaction mixture was washed with buffer once, to which protein loading buffer was added, followed by heating at 100° C. for 3 minutes. The reaction mixture was then loaded on 8% SDS-PAGE gel. Radioactive image of the phosphorylated RIPK1 was detected with FLA-7000 (GE healthcare). The image Quant TL program was used for the quantification. Based on the results, IC50 of the compound was calculated by using sigmaplot 10.0 program.

[8] = system: RGC-5 (rat ganglion cell-5); experiment: Retinal neuron protection under necroptosis inducing (TCZ; TNFα+cycloheximide+zVAD) condition, LDH assay; assay type: cell-based; conditions: RGC-5, TCZ 15 hours, compound 20 μM, DMSO control = 100%
Description: The following experiment was performed to evaluate the retinal neuron protection effect of the compounds of the invention under necroptosis inducing condition.
The retinal ganglion cell line RGC-5 (rat ganglion cell-5) was cultured in DMEM (Dulbecco's modified Eagle's medium) supplemented with 10% FBS (fetal bovine serum) and 1% penicillin/streptomycin. The cells were distributed in a 96-well plate at the density of 8×10^3 cells/well, followed by culture in a 37° C., CO2 incubator for 12 hours. The medium supplemented with TNFα (10 ng/ml), cycloheximide (10 μg/ml), and zVAD (10 μM) (TCZ) was treated with DMSO (0.1%) alone (control) or with the compounds of the invention (20 μM), followed by additional culture in a 37° C., CO2 incubator for 15 hours to induce cell death.
The level of cell death was measured by LDH (lactate dehydrogenase, Roche) assay. The level of the control LDH under TCZ condition was regarded as 100%, and the level of LDH in the cell group cultured in normal medium (10% FBS, DMEM) for the same time was used for the measurement of the relative rate of cell death. The compounds of examples of the invention were treated to wells, each compound for three wells, and then each experiment was performed in triplicate.

[9] = target: T1, RIPK1 (receptor-interacting serine/threonine-protein kinase 1); experiment: RIPK1 inhibitory activity, autophosphorylation of immuno-precipitated RIPK1 with [32P]γ-ATP; assay type: biochemical; conditions: compound 100 μM; remaining RIPK1 phosphorylation
How it was run: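 RIPK1 overexpressed in HEK293, immunoprecipitated, preincubated with compound 15 min at 24 °C in HEPES pH 7.6 kinase buffer with Mg2+/Mn2+. Autophosphorylation run 30 min at 30 °C with 100 μM ATP plus [32P]γ-ATP, resolved by SDS-PAGE and quantified by phosphorimaging.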

[10] = system: dry macular degeneration rabbit model; experiment: Protection against retinal layer thickness reduction by instillation 2 (ONL thickness); assay type: in vivo; conditions: FIG. 8
Description: The eyeballs were extracted from the dry macular degeneration rabbit model used in Experimental Example 7, and the thickness of ONL was measured.

Row | IC50 [7] | activity at 100 µM [9] | Compound | Death of retinal nerve cell (%) [5] | retina degeneration by histostaining [6] | Death of retinal nerve cell (%) [8] | further results
1 |  |  | C[C@H]1c2cccc(O)c2C(=O)C2=C(O)[C@]3(O)C(=O)C(C(N)=O)=C(O)[C@@H](N(C)C)[C@@H]3[C@@H](O)[C@@H]21 [Comparative Example3-HC, doxycycline] |  |  |  | retinal fundus photographs [1]: damaged areas (*) were observed; wave A response ([2]; ERG, FIG. 14 and 15): wave A response was reduced; Wave ratio ([2]; IAA model, ERG wave A, Normal = 1.00): 0.38; Drug efficacy (%) ([2]; IAA model, ERG, Normal = 100, Veh. = 0): 18%; solubility in water ([3]; listed as HC): well dissolved in water; response compared to normal (100%) ([4]; FIG. 11, listed as 3-HC): 66.9%; response compared to normal (100%) ([4]; FIG. 11, listed as Comparative Example 3-HC): 66.9%; Wave ratio [4]: 0.67; Drug efficacy (%) ([4]; Normal = 100, Veh. = 0): 31%; Drug efficacy (%) ([4]; Normal = 100, Veh. = 0, listed as Comparative Example 3 (HC)): 31%; Drug efficacy (%) ([4]; Normal = 100, Veh. = 0, listed as Comparative Example 3-HC): 31%
2 |  |  | C[C@H]1c2cccc(O)c2C(=O)C2=C(O)[C@]3(O)C(=O)C(C(N)=O)=C(O)[C@@H](N(C)C)[C@@H]3[C@@H](O)[C@@H]21 [Comparative Example3-MH, doxycycline] |  |  |  | solubility in water ([3]; listed as MH): not dissolved in water; response compared to normal (100%) ([4]; FIG. 11, listed as 3-MH): 74.1%; response compared to normal (100%) ([4]; FIG. 11, listed as Comparative Example 3-MH): 74.1%; Wave ratio [4]: 0.74; Drug efficacy (%) ([4]; Normal = 100, Veh. = 0): 46%
3 | 0.0955 µM |  | CN1C(=O)C(Cc2c[nH]c3ccccc23)NC1=S (stereo not shown) [Comparative Example 1, 5-((1H-indole-3-yl)methyl)-3-methyl-2-thioxothioxoimidazolidine-4-one, reference compound] | 89.5% and 89.5 ± 10.5% | retina degeneration was not observed |  | phosphorylation of RIPK1 in the retina (retina of rats): phosphorylation was reduced; photoreceptor degeneration (retina of rats): photoreceptor degeneration was also protected
4 |  |  | CN1C(=O)NC(Cc2c[nH]c3c(Cl)cccc23)C1=O (stereo not shown) [Comparative Example 2, 5-((7-chloro-1H-indole-3-yl)methyl)-3-methylimidazolidine-2,4-dione, reference compound] | 73.5% and 73.5 ± 10.3% | retina degeneration was not observed |  | 
5 | 0.36 µM | 3.5 ± 2.1% | O=C(c1cc2c(-c3ccc(F)cc3)cccc2s1)N1CCCC1 [Example 35, (4-(4-fluorophenyl)benzo[b]thiophene-2-yl)(pyrrolidine-1-yl)methanone] | 90.0 ± 3.3% |  | 89.2 ± 8.2% | 
6 | 0.193 µM | 3.7 ± 2.6% | O=C(c1cc2c(-c3ccc(F)cc3)cccc2s1)N1CCOCC1 [Example 39, (4-(4-fluorophenyl)benzo[b]thiophene-2-yl)(morpholino)methanone] | 46.2 ± 0.8% | retina degeneration was not observed | 74.9 ± 9.1% | retinal layer thickness protection effect [10]: 70˜80% and 70-80%
7 | 8.17 µM | 5.5 ± 4.9% | O=C(c1cc2c(-c3ccc(F)cc3)cccc2s1)N1CCCOCC1 [Example 52, (4-(4-fluorophenyl)benzo[b]thiophene-2-yl) (1,4-oxazepane-4-yl)methanone] | 52.8 ± 4.4% |  | 80.8 ± 2.8% | 
8 | 0.23 µM | 1.5 ± 0.7% | O=C(c1cc2c(-c3ccc(F)cc3F)cccc2s1)N1CCOCC1 [Example 63, (4-(2,4-difluorophenyl)benzo[b]thiophene-2-yl)(morpholino)methanone] | 48.3 ± 13.7% |  |  | 
9 | 0.0656 µM | 4% | O=C(c1cc2c(-c3cccs3)cccc2s1)N1CCOCC1 [Example 74, morpholino(4-(thiophene-2-yl)benzo[b]thiophene-2-yl)methanone] | 51.4 ± 10.3% |  |  | 
10 | 0.0734 µM | 3.5 ± 3.5% | O=C(c1cc2c(-c3ccoc3)cccc2s1)N1CCOCC1 [Example 75, (4-(furan-3-yl)benzo[b]thiophene-2-yl)(morpholino)methanone] | 41.7 ± 7.0% |  |  | 
